We go through 27 compounds from BindingDB's records for doi:10.1021/jm960395q (Shionogi, 1996).

In assay [1] the target is T1, Phospholipase A2 (Homo sapiens, UniProt P04054). Kind of assay: Inhibition of recombinant human secretory Phospholipase A2 (s-PLA2).
The nature of assay [2]: Inhibitory activity against recombinant human secretory Phospholipase A2 (s-PLA2) by phosphatidylcholine/deoxycholate assay(PC/DOC).
Assay [3] concerns the target T1, Phospholipase A2. Kind of assay: Inhibition of recombinant human secretory phospholipase A2 (sPLA2), chromogenic screening assay.
Assay [4] in a line: Inhibitory activity against recombinant human secretory phospholipase A2 (s-PLA2) by phosphatidylcholine/deoxycholate assay (PC/DOC).

T1 sequence (P04054 whole entry): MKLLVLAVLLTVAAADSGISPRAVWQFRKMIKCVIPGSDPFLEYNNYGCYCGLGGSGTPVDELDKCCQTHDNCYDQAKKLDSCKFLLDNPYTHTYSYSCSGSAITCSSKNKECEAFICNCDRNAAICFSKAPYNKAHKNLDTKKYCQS

The term IC50 denotes the midpoint of a concentration-inhibition curve. With `CCc1c(C(=O)C(N)=O)c2c(OCn3ncnn3)cccn2c1Cc1cccc(Cl)c1` [2-[3-(3-Chloro-benzyl)-2-ethyl-8-(4H-tetrazol-2-ylmethoxy)-indolizin-1-yl]-2-oxo-acetamide], the results for the IC50 (on Phospholipase A2 [1]; in assay [2]) were 30 nM and 45000 nM, respectively.
On to `CCc1c(C(=O)C(N)=O)c2c(OCc3ccc4ccccc4n3)cccn2c1Cc1ccccc1-c1ccccc1` [2-[3-Biphenyl-2-ylmethyl-2-ethyl-8-(quinolin-2-ylmethoxy)-indolizin-1-yl]-2-oxo-acetamide], for which the IC50 on Phospholipase A2 [1] was found to be 55 nM.
Still for that read-out and setting: the value for `COC(=O)CCCOC1=CC=CN2C1=C(CC(N)=O)C(C)C2Cc1ccccc1` (stereo not drawn) [4-(3-Benzyl-1-carbamoylmethyl-2-methyl-2,3-dihydro-indolizin-8-yloxy)-butyric acid methyl ester] was 15000 nM; that for `CC1C(CC(N)=O)=C2C(OCCCC(=O)O)=CC=CN2/C1=C\c1ccccc1` (stereo not drawn) [4-{1-Carbamoylmethyl-2-methyl-3-[1-phenyl-meth-(Z)-ylidene]-2,3-dihydro-indolizin-8-yloxy}-butyric acid] was 910 nM.
Turning to `CCc1c(CC(N)=O)c2c(OCC(=O)O)cccn2c1Cc1ccccc1` [(3-Benzyl-1-carbamoylmethyl-2-ethyl-indolizin-8-yloxy)-acetic acid], the IC50 on Phospholipase A2 [3] was 13 nM; in assay [4], 28 nM.
In the case of `CC1C(CC(N)=O)=C2C(OCC(=O)O)=CC=CN2C1Cc1ccccc1` (stereo not drawn) [(3-Benzyl-1-carbamoylmethyl-2-methyl-2,3-dihydro-indolizin-8-yloxy)-acetic acid], the IC50 at Phospholipase A2 [1] was found to be 12000 nM.
`NC(=O)Cc1c(C2CC2)c(Cc2ccccc2-c2ccccc2)n2cccc(OCC(=O)O)c12` [(3-Biphenyl-2-ylmethyl-1-carbamoylmethyl-2-cyclopropyl-indolizin-8-yloxy)-acetic acid]: the values for the IC50 (on Phospholipase A2 [3]; in assay [4]) were 13 nM and 26 nM, respectively.
On to `CCc1c(CC(N)=O)c2c(OCC(=O)O)cccn2c1Cc1ccccc1-c1ccccc1` [(3-Biphenyl-2-ylmethyl-1-carbamoylmethyl-2-ethyl-indolizin-8-yloxy)-acetic acid], for which the IC50 (at Phospholipase A2 [3]; in assay [4]) was 14 nM in each case.
For `CCCC(C)Cc1c(CC)c(C(=O)C(N)=O)c2c(OCC(=O)O)cccn12` (stereo not drawn) [[1-Aminooxalyl-2-ethyl-3-(2-methyl-pentyl)-indolizin-8-yloxy]-acetic acid], the IC50 was found to be 17 nM at Phospholipase A2 [3] and 78 nM in assay [4].
The corresponding values for `CCc1c(C(=O)C(N)=O)c2c(OCC(=O)O)cccn2c1Cc1ccccc1[N+](=O)[O-]` [[1-Aminooxalyl-2-ethyl-3-(2-nitro-benzyl)-indolizin-8-yloxy]-acetic acid] are 36 nM and 120 nM.
For `CCc1c(C(=O)C(N)=O)c2c(OCC(=O)O)cccn2c1Cc1cccc(OC)c1` [[1-Aminooxalyl-2-ethyl-3-(3-methoxy-benzyl)-indolizin-8-yloxy]-acetic acid] the same measures were 21 nM and 30 nM.
For `CCc1c(C(=O)C(N)=O)c2c(OCC(=O)O)cccn2c1Cc1cccc(C(F)(F)F)c1` [[1-Aminooxalyl-2-ethyl-3-(3-trifluoromethyl-benzyl)-indolizin-8-yloxy]-acetic acid] the same measures were 9 nM and 3 nM.
For the compound `CCc1c(C(=O)C(N)=O)c2c(OCC(=O)OC)cccn2c1C/C=C/c1ccccc1` [[1-Aminooxalyl-2-ethyl-3-((E)-3-phenyl-allyl)-indolizin-8-yloxy]-acetic acid methyl ester], the IC50 on Phospholipase A2 [3] is 38 nM; in assay [4], 80 nM.
Regarding `CCCCC[C@H]1CCCC(Cc2c(CC)c(C(=O)C(N)=O)c3c(OCC(=O)O)cccn23)C1` (stereo partly drawn) [[1-Aminooxalyl-2-ethyl-3-((S)-3-pentyl-cyclohexylmethyl)-indolizin-8-yloxy]-acetic acid], the results for the IC50 (at Phospholipase A2 [3]; in assay [4]) were 25 nM and 20 nM, respectively.
For the compound `CCc1c(C(=O)C(N)=O)c2c(OCC(=O)O)cccn2c1Cc1ccccc1Cc1ccccc1` [[1-Aminooxalyl-3-(2-benzyl-benzyl)-2-ethyl-indolizin-8-yloxy]-acetic acid], the IC50 at Phospholipase A2 [3] is 6 nM; in assay [4], 1.3 nM.
For `CCc1c(C(=O)C(N)=O)c2c(OCC(=O)O)cccn2c1Cc1cccc(Cl)c1` [[1-Aminooxalyl-3-(3-chloro-benzyl)-2-ethyl-indolizin-8-yloxy]-acetic acid] the same measures were 6 nM and 3 nM.
The corresponding values for `CCCCc1ccc(Cc2c(CC)c(C(=O)C(N)=O)c3c(OCC(=O)O)cccn23)cc1` [[1-Aminooxalyl-3-(4-butyl-benzyl)-2-ethyl-indolizin-8-yloxy]-acetic acid] are 11 nM and 5 nM.
For `CCc1c(CC(N)=O)c2c(OCC(=O)O)cccn2c1Cc1cccc(Cl)c1` [[1-Carbamoylmethyl-3-(3-chloro-benzyl)-2-ethyl-indolizin-8-yloxy]-acetic acid] the same measures were 15 nM and 52 nM.
As for `CC1C(C(N)=O)=C2C(OCC(=O)O)=CC=CN2/C1=C\c1ccccc1` (stereo not drawn) [{1-Carbamoyl-2-methyl-3-[1-phenyl-meth-(Z)-ylidene]-2,3-dihydro-indolizin-8-yloxy}-acetic acid], the IC50 at Phospholipase A2 [1] was determined as 420 nM.
On the same count and under the same terms, the same measure for `CCC1C(CC(N)=O)=C2C(OCC(=O)O)=CC=CN2/C1=C\c1cccc(C(F)(F)F)c1` (stereo not drawn) [{1-Carbamoylmethyl-2-ethyl-3-[1-(3-trifluoromethyl-phenyl)-meth-(Z)-ylidene]-2,3-dihydro-indolizin-8-yloxy}-acetic acid]: 240 nM.
For the compound `CCC1C(CC(N)=O)=C2C(OCC(=O)O)=CC=CN2/C1=C\c1cccc2ccccc12` (stereo not drawn) [{1-Carbamoylmethyl-2-ethyl-3-[1-naphthalen-1-yl-meth-(Z)-ylidene]-2,3-dihydro-indolizin-8-yloxy}-acetic acid], the IC50 on Phospholipase A2 [1] was determined as 25 nM; in assay [2], 130000 nM.
In the case of `CCC1C(CC(N)=O)=C2C(OCC(=O)O)=CC=CN2/C1=C\c1ccc2ccccc2c1` (stereo not drawn) [{1-Carbamoylmethyl-2-ethyl-3-[1-naphthalen-2-yl-meth-(Z)-ylidene]-2,3-dihydro-indolizin-8-yloxy}-acetic acid], the IC50 on Phospholipase A2 [1] was 170 nM.
Same read-out and setting: the same measure for `CCC1C(CC(N)=O)=C2C(OCC(=O)O)=CC=CN2/C1=C\c1ccccc1` (stereo not drawn) [{1-Carbamoylmethyl-2-ethyl-3-[1-phenyl-meth-(Z)-ylidene]-2,3-dihydro-indolizin-8-yloxy}-acetic acid]: 160 nM; for `CCC1C(CC(N)=O)=C2C(OCC(=O)O)=CC=CN2/C1=C\c1cccc(Cl)c1Cl` (stereo not drawn) [{1-Carbamoylmethyl-3-[1-(2,3-dichloro-phenyl)-meth-(Z)-ylidene]-2-ethyl-2,3-dihydro-indolizin-8-yloxy}-acetic acid]: 67 nM; for `CCC1C(CC(N)=O)=C2C(OCC(=O)O)=CC=CN2/C1=C\c1cccc(Cl)c1` (stereo not drawn) [{1-Carbamoylmethyl-3-[1-(3-chloro-phenyl)-meth-(Z)-ylidene]-2-ethyl-2,3-dihydro-indolizin-8-yloxy}-acetic acid]: 200 nM.
`CCC1C(C(N)=O)=C2C(OCC(=O)O)=CC=CN2/C1=C\c1ccccc1Cc1ccccc1` (stereo not drawn) [{3-[1-(2-Benzyl-phenyl)-meth-(Z)-ylidene]-1-carbamoyl-2-ethyl-2,3-dihydro-indolizin-8-yloxy}-acetic acid]: the IC50 on Phospholipase A2 [1] turned out to be 400 nM.
On to `CCC1C(CC(N)=O)=C2C(OCC(=O)O)=CC=CN2/C1=C\c1ccccc1-c1ccccc1` (stereo not drawn) [{3-[1-Biphenyl-2-yl-meth-(Z)-ylidene]-1-carbamoylmethyl-2-ethyl-2,3-dihydro-indolizin-8-yloxy}-acetic acid], for which the values for the IC50 (on Phospholipase A2 [1]; in assay [2]) were 100 nM and 420000 nM, respectively.
